Test results published in patent US11110103B2, “Inhibitors of glucocorticoid receptor” (ORIC Pharmaceuticals, Inc., priority 2015, dated 2021).

Target: T1, GR (Homo sapiens, UniProt P04150)
T1 construct: expressed in transfected cells; host or cells: CHO-K1 (CHO-K1-GR-MMTV-Luc reporter cells)
T1 sequence (P04150 1-777): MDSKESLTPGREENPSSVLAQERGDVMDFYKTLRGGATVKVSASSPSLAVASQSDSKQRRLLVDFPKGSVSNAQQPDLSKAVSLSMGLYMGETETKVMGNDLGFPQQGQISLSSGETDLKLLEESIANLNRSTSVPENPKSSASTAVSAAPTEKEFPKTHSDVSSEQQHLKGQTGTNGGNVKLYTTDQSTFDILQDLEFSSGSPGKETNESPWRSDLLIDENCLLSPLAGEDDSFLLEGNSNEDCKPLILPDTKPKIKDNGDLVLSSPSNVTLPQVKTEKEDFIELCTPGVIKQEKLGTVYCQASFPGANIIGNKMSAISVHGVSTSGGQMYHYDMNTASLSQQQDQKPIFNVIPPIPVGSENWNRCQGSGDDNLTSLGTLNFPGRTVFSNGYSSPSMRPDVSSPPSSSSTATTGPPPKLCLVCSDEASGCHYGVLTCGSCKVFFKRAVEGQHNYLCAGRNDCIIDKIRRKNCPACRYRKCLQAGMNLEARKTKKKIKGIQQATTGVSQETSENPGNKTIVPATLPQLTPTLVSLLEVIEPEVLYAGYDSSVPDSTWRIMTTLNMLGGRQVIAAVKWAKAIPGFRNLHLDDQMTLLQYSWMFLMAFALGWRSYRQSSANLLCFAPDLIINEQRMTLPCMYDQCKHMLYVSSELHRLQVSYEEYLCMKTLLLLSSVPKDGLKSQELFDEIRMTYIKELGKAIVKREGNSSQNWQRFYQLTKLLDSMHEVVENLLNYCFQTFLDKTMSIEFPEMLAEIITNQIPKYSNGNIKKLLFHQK
Assay: In Vitro GR Luciferase Reporter Assay (antagonist assay)
Assay type: cell-based
Details: CHO-K1-GR-MMTV-Luc reporter cells, 10 nM Dexamethasone, 18-24 hours
Experimental: Cell Line: CHO-K1-GR-MMTV-Luc reporter cells
Culture Media: DMEM (with phenol red)+10% FBS
Assay Media: DMEM (without phenol red)+10% CSS
Culture CHO-K1-GR-MMTV-Luc reporter cells in 15 cm plates in Culture Media at conditions less than 90% confluence.
Prepare 200×DMSO 1:5 serial dilutions of control and test compounds in 96-well non-sterile V bottom plate in DMSO, 8 serial dilutions for each compound.
Add compounds: 5 ul of assay media diluted compounds were added to appropriate wells and followed a quick spin (1000 rpm, 10 sec) to bring media and cells to the bottom of plate. The plates were covered with SealMate film to avoid evaporation and placed in 37° C. incubator for approximately 18-24 hours.
Read plates: Equilibrate appropriate amount of Promega OneGlo luciferase reagent to room temperature. Remove the plates from incubator and add 25 uL of OneGlo reagent/well by multiple channel pipette and read the plates with Tecan F500 luminometer within 3 minutes.
The ability of the compounds disclosed herein to inhibit GR activity was quantified and the respective IC50 value was determined.

Compound	IC50 [µM]
CC#C[C@]1(O)[C@H](C)C[C@H]2[C@@H]3CCC4=CC(=O)CCC4=C3[C@@H](c3c(F)cc(N(C)C)cc3F)C[C@@]21C	< 0.1
CC#C[C@]1(O)CC[C@H]2[C@@H]3CCC4=CC(=O)CCC4=C3[C@@H](c3cccc(C(C)C)c3)C[C@@]21C [drawing 185]	< 0.1
CC#C[C@]1(O)CC[C@H]2[C@@H]3CCC4=CC(=O)CCC4=C3[C@@H](c3cc(C)c(N(C)C)c(F)c3)C[C@@]21C	< 0.1
CC#C[C@]1(O)CC[C@H]2[C@@H]3CCC4=CC(=O)CCC4=C3[C@@H](c3ccc4c(c3)OCCO4)C[C@@]21C [drawing 210]	< 0.1
CC#C[C@]1(O)CC[C@H]2[C@@H]3CCC4=CC(=O)CCC4=C3[C@@H](c3cc(F)c(N(C)C)c(F)c3)C[C@@]21C	< 0.1
CC#C[C@]1(O)CC[C@H]2[C@@H]3CCC4=CC(=O)CCC4=C3[C@@H](c3c(F)cc(N4CCCC4)cc3F)C[C@@]21C	< 0.1
CC#C[C@]1(O)CC[C@H]2[C@@H]3CCC4=CC(=O)CCC4=C3[C@@H](c3cccc(C(C)O)c3)C[C@@]21C (some centres unmarked)	> 0.1
CC#C[C@]1(O)CC[C@H]2[C@@H]3CCC4=CC(=O)CCC4=C3[C@@H](c3ccc(F)c(OC)c3)C[C@@]21C	> 0.1
CC#C[C@]1(O)CC[C@H]2[C@@H]3CCC4=CC(=O)CCC4=C3[C@@H](c3c(F)cc(N(C)CC)cc3F)C[C@@]21C	< 0.1
CC#C[C@]1(O)CC[C@H]2[C@@H]3CCC4=CC(=O)CCC4=C3[C@@H](c3ccc(C(C)C)c(N(C)C)c3)C[C@@]21C [drawing 201]	< 0.1
CC#C[C@]1(O)[C@H](C)C[C@H]2[C@@H]3CCC4=CC(=O)CCC4=C3[C@@H](c3c(F)cc(N4CCC4)cc3F)C[C@@]21C	< 0.1
CC#C[C@]1(O)CC[C@H]2[C@@H]3CCC4=CC(=O)CCC4=C3[C@@H](c3ccc(OC)c(C(C)C)c3)C[C@@]21C	< 0.1
CC#C[C@]1(O)CC[C@H]2[C@@H]3CCC4=CC(=O)CCC4=C3[C@@H](c3ccc(F)c(C#N)c3)C[C@@]21C [drawing 199]	< 0.1
CC#C[C@]1(O)CC[C@H]2[C@@H]3CCC4=CC(=O)CCC4=C3[C@@H](c3cc(F)c(OC)c(F)c3)C[C@@]21C	< 0.1
CC#C[C@]1(O)CC[C@H]2[C@@H]3CCC4=CC(=O)CCC4=C3[C@@H](c3cc(F)cc(F)c3)C[C@@]21C [drawing 196]	< 0.1
CC#C[C@]1(O)CC[C@H]2[C@@H]3CCC4=CC(=O)CCC4=C3[C@@H](c3ccc(C(C)C)c(OC)c3)C[C@@]21C	< 0.1
CC#C[C@]1(O)[C@H](C)C[C@H]2[C@@H]3CCC4=CC(=O)CCC4=C3[C@@H](c3ccc(C)c(F)c3)C[C@@]21C	< 0.1
CC#C[C@]1(O)CC[C@H]2[C@@H]3CCC4=CC(=O)CCC4=C3[C@@H](c3cccc(OCC)c3)C[C@@]21C [drawing 186]	< 0.1
CC#C[C@]1(OC)CC[C@H]2[C@@H]3CCC4=CC(=O)CCC4=C3[C@@H](c3cc(F)c(C)c(F)c3)C[C@@]21C	> 0.1
CC#C[C@]1(O)CC[C@H]2[C@@H]3CCC4=CC(=O)CCC4=C3[C@@H](c3c(F)cc(OC)cc3F)C[C@@]21C	< 0.1
CC#C[C@]1(O)C2(CC2)C[C@H]2[C@@H]3CCC4=CC(=O)CCC4=C3[C@@H](c3c(F)cc(N(C)C)cc3F)C[C@@]21C	< 0.1

Continued, values first:

IC50 [µM]	Compound
> 0.1	CC#C[C@]1(O)CC[C@H]2[C@@H]3CCC4=CC(=O)CCC4=C3[C@@H](c3cccc(OC(C)C)c3)C[C@@]21C
< 0.1	CC#C[C@]1(O)[C@H](C)C[C@H]2[C@@H]3CCC4=CC(=O)CCC4=C3[C@@H](c3ccc(N4CCOC[C@H]4C)cc3)C[C@@]21C [drawing 227]
< 0.1	CC#C[C@]1(O)C2(CC2)C[C@H]2[C@@H]3CCC4=CC(=O)CCC4=C3[C@@H](c3ccc(S(=O)(=O)N(C)C)cc3)C[C@@]21C
< 0.1	CC#C[C@]1(O)[C@H](C)C[C@H]2[C@@H]3CCC4=CC(=O)CCC4=C3[C@@H](c3ccc(S(=O)(=O)N4CCCCC4)cc3)C[C@@]21C [drawing 226]
< 0.1	CC#C[C@]1(O)CC[C@H]2[C@@H]3CCC4=CC(=O)CCC4=C3[C@@H](c3ccc(S(=O)(=O)C(C)(C)C)cc3)C[C@@]21C [drawing 182]
> 0.1	CC#C[C@]1(O)CC[C@H]2[C@@H]3CCC4=CC(=O)CCC4=C3[C@@H](c3ccc(NS(=O)(=O)c4ccc(C)cc4)cc3)C[C@@]21C
> 0.1	CC#C[C@]1(O)[C@H](C)C[C@H]2[C@@H]3CCC4=CC(=O)CCC4=C3[C@@H](c3cc(F)c(C)c(F)c3)C[C@@]21C
< 0.1	CC#C[C@]1(O)CC[C@H]2[C@@H]3CCC4=CC(=O)CCC4=C3[C@@H](c3ccc(S(=O)(=O)N4CCCCC4)cc3)C[C@@]21C [drawing 181]
> 0.1	CC#C[C@]1(O)CC[C@H]2[C@@H]3CCC4=CC(=O)CCC4=C3[C@@H](c3ccc(Cl)c(C4CC4)c3)C[C@@]21C
< 0.1	CC#C[C@]1(O)CC[C@H]2[C@@H]3CCC4=CC(=O)CCC4=C3[C@@H](c3cc(F)c(C)c(F)c3)C[C@@]21C [drawing 209]
> 0.1	CC#C[C@]1(O)CC[C@H]2[C@@H]3CCC4=CC(=O)CCC4=C3[C@@H](c3ccc(Cl)c(OC)c3)C[C@@]21C [drawing 204]
< 0.1	CC#C[C@]1(O)CC[C@H]2[C@@H]3CCC4=CC(=O)CCC4=C3[C@@H](c3ccc(C)c(N(C)C)c3)C[C@@]21C
> 0.1	CC#C[C@]1(O)CC[C@H]2[C@@H]3CCC4=CC(=O)CCC4=C3[C@@H](c3ccc(N(C)C)c(C(C)C)c3)C[C@@]21C [drawing 203]
> 0.1	CC#C[C@]1(O)[C@H](C)C[C@H]2[C@@H]3CCC4=CC(=O)CCC4=C3[C@@H](c3ccc(S(=O)(=O)C(C)(C)C)cc3)C[C@@]21C
< 0.1	CC#C[C@]1(O)CC[C@H]2[C@@H]3CCC4=CC(=O)CCC4=C3[C@@H](c3ccc(Cl)c(C(C)C)c3)C[C@@]21C [drawing 200]
> 0.1	CC#C[C@]1(O)CC[C@H]2[C@@H]3CCC4=CC(=O)CCC4=C3[C@@H](c3cccc(C(C)(C)C)c3)C[C@@]21C
< 0.1	CC#C[C@]1(O)[C@H](C)C[C@H]2[C@@H]3CCC4=CC(=O)CCC4=C3[C@@H](c3c(F)cc(N4CCOCC4)cc3F)C[C@@]21C
< 0.1	CC#C[C@]1(O)CC[C@H]2[C@@H]3CCC4=CC(=O)CCC4=C3[C@@H](c3c(F)cc(CC)cc3F)C[C@@]21C
> 0.1	CC#C[C@]1(O)CC[C@H]2[C@@H]3CCC4=CC(=O)CCC4=C3[C@@H](c3ccc(C)c(N4CCC4)c3)C[C@@]21C
< 0.1	CC#C[C@]1(O)CC[C@H]2[C@@H]3CCC4=CC(=O)CCC4=C3[C@@H](c3c(F)cc(N4CCOCC4)cc3F)C[C@@]21C
< 0.1	CC#C[C@]1(O)CC[C@H]2[C@@H]3CCC4=CC(=O)CCC4=C3[C@@H](c3ccc(C)c(F)c3)C[C@@]21C
< 0.1	CC#C[C@]1(O)[C@H](CC)C[C@H]2[C@@H]3CCC4=CC(=O)CCC4=C3[C@@H](c3ccc(N(C)C)cc3)C[C@@]21C [drawing 225]
< 0.1	CC#C[C@]1(O)CC[C@H]2[C@@H]3CCC4=CC(=O)CCC4=C3[C@@H](c3cc(F)c(N(C)C)cc3F)C[C@@]21C
